Where two headings read alike, the source gives them in different places.
How the values were obtained:
[1] = target: T1, Aurora-A (Homo sapiens, UniProt O14965); assay: Flashplate Aurora A enzyme inhibition assay; assay type: biochemical
T1 sequence (O14965 1-403): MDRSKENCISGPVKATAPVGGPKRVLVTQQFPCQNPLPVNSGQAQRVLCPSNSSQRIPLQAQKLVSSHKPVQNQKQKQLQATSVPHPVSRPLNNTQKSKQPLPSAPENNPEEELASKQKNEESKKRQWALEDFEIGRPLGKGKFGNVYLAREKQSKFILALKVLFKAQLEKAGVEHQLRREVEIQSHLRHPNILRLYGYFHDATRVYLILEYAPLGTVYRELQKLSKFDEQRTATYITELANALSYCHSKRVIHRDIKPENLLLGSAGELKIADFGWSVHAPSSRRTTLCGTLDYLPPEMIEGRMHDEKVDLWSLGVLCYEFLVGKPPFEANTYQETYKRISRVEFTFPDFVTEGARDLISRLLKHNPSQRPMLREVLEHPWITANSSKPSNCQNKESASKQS
Method in brief: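 This is a radiometric Flashplate format: plates were precoated with DTT, and compound (in 2% DMSO) was mixed with kinase buffer (pH 7.5 Tris, MgCl2, NaCl) containing 1 mM MBP, 20 μM ATP and ^33P-ATP. The reaction was started with 250 ng Aurora-A per well and incubated 2 h at RT. It was then stopped by 10 mM sodium pyrophosphate washing, and plates were scintillation-counted.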

[2] = tested on: HCT116 cells; assay: Cell viability assay (MTT) in HCT116 cell line; assay type: cell-based; conditions: Homo sapiens, HCT-116, 72 hrs, IC50 range, read-out: HCT116 cell growth inhibition
Method in brief: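 MTT read-out (4 hrs, 37 °C, DMSO extraction) following 72 hrs of treatment with 0-50 μM Aurora inhibitor. HCT116 cells were plated a day earlier and tested in triplicate; IC50 derived from the curve.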

[3] = Flashplate assay, IC50 range, read-out: Aurora-A inhibition

| Structure (SMILES) | IC50 [1, 3] [nM] | IC50 [2] [nM] | IC50 [1] [nM] |
| --- | --- | --- | --- |
| NCc1cccc(-c2nc3c(N4CCN(CC(=O)Nc5nccs5)CC4)c(Br)cnc3[nH]2)c1 [Example 12, 2-{4-[2-(3-Aminomethyl-phenyl)-6-bromo-3H-imidazo[4,5-b]pyridin-7-yl]-piperazin-1-yl}-N-thiazol-2-yl-acetamide] | < 500 | 2000 to 50000 |  |
| CN(C)c1ccc(-c2nc3c(N4CCN(CC(=O)N(C)c5ccccc5)CC4)c(Cl)cnc3[nH]2)cc1 [Example 3, 2-{4-[6-Chloro-2-(4-dimethylamino-phenyl)-3H-imidazo[4,5-b]pyridin-7-yl]-piperazin-1-yl}-N-methyl-N-phenyl-acetamide] | < 500 | 2000 to 50000 |  |
| Cc1nc(CN2CCN(c3c(Br)cnc4[nH]c(-c5ccc(CN6CCNCC6)cc5)nc34)CC2)cs1 [Example 164, 4-((4-(6-Bromo-2-(4-(piperazin-1-ylmethyl)phenyl)-3H-imidazo[4,5-b]pyridin-7-yl)piperazin-1-yl)methyl)-2-methylthiazole] | < 500 | < 500 |  |
| CC(C)c1nc(CN2CCN(c3c(Br)cnc4[nH]c(-c5ccc(CN6CCOCC6)cc5)nc34)CC2)cs1 [Example 155, 4-(4-(6-Bromo-7-(4-((2-isopropylthiazol-4-yl)methyl)piperazin-1-yl)-3H-imidazo[4,5-b]pyridin-2-yl)benzyl)morpholine] | < 500 | 2000 to 50000 |  |
| Clc1ccc(CN2CCN(c3c(Br)cnc4[nH]c(-c5ccc(Cn6cccn6)cc5)nc34)CC2)cc1 [Example 85, 2-(4-((1H-Pyrazol-1-yl)methyl)phenyl)-6-bromo-7-(4-(4-chlorobenzyl)piperazin-1-yl)-3H-imidazo[4,5-b]pyridine] | < 500 | < 500 |  |
| CN1CCN(Cc2cccc(-c3nc4c(N5CCN(Cc6cccnc6)CC5)c(Br)cnc4[nH]3)c2)CC1 [Example 58, 6-Bromo-2-(3-((4-methylpiperazin-1-yl)methyl)phenyl)-7-(4-(pyridin-3-ylmethyl)piperazin-1-yl)-3H-imidazo[4,5-b]pyridine] | < 500 | 500 to 2000 |  |
| CC(c1ccccc1)N1CCN(c2c(Br)cnc3[nH]c(-c4ccc(N5CCN(C)CC5)cc4)nc23)CC1 (stereo not drawn) [Example 71, 6-Bromo-2-[4-(4-methyl-piperazin-1-yl)-phenyl]-7-[4-(1-phenyl-ethyl)-piperazin-1-yl]-3H-imidazo[4,5-b]pyridine] | < 500 | < 500 |  |
| CC(C)(C)OC(=O)N1CCN(c2ccc(-c3nc4c(N5CCN(Cc6cccnc6)CC5)c(Cl)cnc4[nH]3)cc2)CC1 [Example 136, tert-Butyl 4-(4-(6-chloro-7-(4-(pyridin-3-ylmethyl)piperazin-1-yl)-3H-imidazo[4,5-b]pyridin-2-yl)phenyl)piperazine-1-carboxylate] | 500 to 2000 | 2000 to 50000 |  |
| Cc1nc(CN2CCN(c3c(Br)cnc4[nH]c(-c5ccc(N6CCOCC6)cc5)nc34)CC2)cs1 [Example 159, 4-(4-(6-Bromo-7-(4-((2-methylthiazol-4-yl)methyl)piperazin-1-yl)-3H-imidazo[4,5-b]pyridin-2-yl)phenyl)morpholine] | < 500 | 500 to 2000 |  |
| CC(C)CN1CCN(c2c(Br)cnc3[nH]c(-c4ccc(N(C)C)cc4)nc23)CC1 [Example 32, 4-(6-Bromo-7-(4-isobutylpiperazin-1-yl)-3H-imidazo[4,5-b]pyridin-2-yl)-N,N-dimethylaniline] |  | 500 to 2000 | < 500 |
| NCc1nc2c(N3CCN(Cc4cccnc4)CC3)c(Br)cnc2[nH]1 [Example 100, (6-Bromo-7-(4-(pyridin-3-ylmethyl)piperazin-1-yl)-3H-imidazo[4,5-b]pyridin-2-yl)methanamine] | 2000 to 10000 | 2000 to 50000 |  |
| CC(C)(C)OC(=O)NCc1ccc(-c2nc3c(N4CCN(Cc5cccnc5)CC4)c(Br)cnc3[nH]2)cc1 [Example 59, tert-Butyl 4-(6-bromo-7-(4-(pyridin-3-ylmethyl)piperazin-1-yl)-3H-imidazo[4,5-b]pyridin-2-yl)benzylcarbamate] | < 500 | 2000 to 50000 |  |

From patent publication US8088761B2, “Enzyme inhibitors” (Cancer Research Technology Limited, priority 2005, dated 2012)
